Reference: BindingDB's records for doi:10.1002/cbic.201600697 (University of Tartu, 2017)
Where “and” joins values, the source holds several entries; their conditions need not be identical. Equal values may be shown once.

Experiments:
Conditions in all cases: pH 7.5
[1] = molecular target: cAMP-dependent protein kinase catalytic subunit alpha (Homo sapiens, UniProt P17612); assay: Equilibrium Binding/Displacement Assay with Fluorescence Anisotropy
Procedure: (§1) All measurements were performed in HEPES (50 mm, pH 7.5) containing NaCl (150 mm), Tween-20 (0.005%) and DTT (5 mm) according to a previously published protocol.[Vaasa et al., Anal. Biochem., 385:85-93] The final volume of the assay mixture was […].

[2] = molecular target: T1, Serine/threonine-protein kinase haspin [470-798] (Homo sapiens, UniProt Q8TF76); assay: as above
T1 construct: 470-798
T1 sequence (Q8TF76 whole entry): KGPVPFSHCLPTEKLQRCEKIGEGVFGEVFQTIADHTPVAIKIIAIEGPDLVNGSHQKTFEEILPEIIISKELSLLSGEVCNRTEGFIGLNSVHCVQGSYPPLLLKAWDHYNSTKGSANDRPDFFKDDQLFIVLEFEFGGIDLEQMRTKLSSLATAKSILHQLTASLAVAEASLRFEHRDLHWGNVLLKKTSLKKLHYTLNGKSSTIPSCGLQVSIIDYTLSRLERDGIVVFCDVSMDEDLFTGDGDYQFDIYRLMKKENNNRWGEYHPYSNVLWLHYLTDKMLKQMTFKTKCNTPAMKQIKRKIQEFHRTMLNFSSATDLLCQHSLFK
Procedure: as §1

[3] = molecular target: T1, Serine/threonine-protein kinase haspin [470-798]; assay: Kinetic Assay with Fluorescence Anisotropy
Procedure: Association kinetics (Kon): All measurements were performed in HEPES (50 mM, pH 7.5) containing NaCl (150 mM), Tween-20 (0.005%) and DTT (5 mM) according to a previously published protocol.[Vaasa et al., Anal. Biochem., 385:85-93] The final volume of the assay mixture was […] The association kinetics assay with fluorescent probes and data analysis were performed according to published protocols.[Vaasa et al., Anal. Biochem., 385:85-93] The final volume of the assay mixture was […]. Dissociation kinetics (Koff): All measurements were performed in HEPES (50 mM, pH 7.5) containing NaCl (150 mM), Tween-20 0.005%) and DTT (5 mM). Data analysis was as reported previously,[Vaasa et al., Anal. Biochem., 385:85-93] by using method1 for compounds with shorter residence times, and method 2 for 1 in studies with haspin. The final volume of the assay mixture was […]. Kd' is calculated as Koff/Kon.

Compound | Kd [1] [nM] | Kd [2] | Kd [3] [nM]
CCCCCCCCCCCCCC(=O)NCCCC[C@@H](NC(=O)[C@H](C)NC(=O)[C@@H](NC(=O)[C@H](CCC(N)=O)NC(=O)[C@H](CCCNC(=N)N)NC(=O)[C@H](CCCCNC(=O)C[C@@H](NC(=O)CCCCCNC(=O)[C@H]1O[C@@H](n2ccc3c(N)ncnc32)[C@H](O)[C@@H]1O)C(=O)[O-])NC(=O)[C@H](CCCNC(=N)N)NC(=O)[C@H](C)N)C(C)O)C(=O)N[C@H](CCCCNC(=O)c1ccc(-c2c3ccc(=[N+](C)C)cc-3oc3cc(N(C)C)ccc23)c(C(=O)O)c1)C(N)=O (stereo partly specified) [ARC-3380] | 9.6 | 8.4 nM | 14.9
CC(O)[C@H](NC(=O)[C@H](CCC(N)=O)NC(=O)[C@H](CCCNC(=N)N)NC(=O)[C@H](CCCCNC(=O)C[C@@H](NC(=O)CCCCCNC(=O)[C@H]1O[C@@H](n2ccc3c(N)ncnc32)[C@H](O)[C@@H]1O)C(=O)[O-])NC(=O)[C@H](CCCNC(=N)N)NC(=O)[C@H](C)N)C(=O)N[C@@H](C)C(=O)N[C@H](CCCCNC(=O)c1ccc(-c2c3ccc(=[N+](C)C)cc-3oc3cc(N(C)C)ccc23)c(C(=O)O)c1)C(N)=O (stereo partly specified) [ARC-3384] | 52 | 11 nM | 2.84
CC(O)[C@H](NC(=O)[C@H](CCC(N)=O)NC(=O)[C@H](CCCNC(=N)N)NC(=O)[C@H](CCCCNC(=O)C[C@@H](NC(=O)CCCCCNC(=O)[C@H]1O[C@@H](n2cc(I)c3c(N)ncnc32)[C@H](O)[C@@H]1O)C(=O)O)NC(=O)[C@H](CCCNC(=N)N)NC(=O)[C@H](C)N)C(=O)N[C@@H](C)C(=O)N[C@H](CCCCN)C(N)=O (stereo partly specified) [ARC-3429] | 94 | 0.14 nM and 0.019 nM | –
CC(O)[C@H](NC(=O)[C@H](CCC(N)=O)NC(=O)[C@H](CCCNC(=N)N)NC(=O)[C@H](CCCCNC(=O)C[C@@H](NC(=O)CCCCCNC(=O)[C@H]1O[C@@H](n2cc(I)c3c(N)ncnc32)[C@H](O)[C@@H]1O)C(=O)[O-])NC(=O)[C@H](CCCNC(=N)N)NC(=O)[C@H](C)N)C(=O)N[C@@H](C)C(=O)N[C@H](CCCCNC(=O)c1ccc(-c2c3ccc(=[N+](C)C)cc-3oc3cc(N(C)C)ccc23)c(C(=O)O)c1)C(N)=O (stereo partly specified) [ARC-3430] | 4.1 | 0.5 nM and 0.12 nM | 0.1
